Here are results for 35 compounds from patent US6207677A, “Piperidine derivatives having anxiolytic effect” (H. Lundbeck A/S, priority 1991, dated 2001).

This assay concerns the target sigma receptors. The assay can be described thus: Inhibition of 3H-DTG binding to sigma receptors in rat brain in vitro. As to conditions: 2 nM 3H-DTG, rat brain without cerebellum, 25° C., 20 min. The method, then:
INHIBITION OF 3H-DTG BINDING TO SIGMA RECEPTORS IN RAT BRAIN IN VITRO
By this method the inhibition by drugs of the binding of 2 nM ^3 H-DTG (1,3,di-o-tolyl guanidine) to sigma receptors in homogenates or membranes from rat brain without cerebellum is determined in vitro as modified from Weber et al. Proc. Natl. Acad. Sci. 1986, 83,8784.
Homogenate: Rats (150-250 g) are decapitated and the brains (without cerebellum) quickly removed and placed on ice, weighed and homogenized in 100 vol ice-cold (0° C.) 50 mM Tris-buffer (pH 7.7) in an ethanol rinsed glass/teflon homogenizer at 0° C. and kept on ice until use.
P2-membranes: Brains are homogenized in 10 vol 0.32 M sucrose in an ethanol rinsed glass/teflon homogenizer with 10 strokes up and down. The homogenate is centrifuged for 10 min at 900×gm at 4° C. The supernatant is decanted and centrifuged for 20 min at 50,000 gm at 4° C. The resulting pellet is resuspended in 10 vol ice-cold […] Tris-buffer (pH 7.7) and incubated for 30 min. at 37° C. The membrane suspension is then centrifuged for further 20 min. at 50,000 gm at 4° C. The pellet is resuspended in 50 vol. of ice-cold Tris-buffer and used immediately.
0.5 ml 50 mM Tris-buffer (pH 7.7), 0.25 ml displacer (6×100 μM DTG, 6× [test compound], or Tris-buffer), and 0.25 ml 6×2 nM. ^3 H-DTG are mixed into 5 ml s plastic test tubes and kept at 4° C. until use. The binding reaction is initiated by mixing 0.5 ml tissue suspension into this solution and incubate at 25° C. for 20 min. Glass fiber filters (Whatman GF/B) are placed on the filter machine which is then closed tightly. Just before filtration vacuum is applied, and the filters washed with 0.1% PEI solution from a spray bottle followed by one wash with Tris-buffer.
The binding reaction is stopped by filtration of the assay mixture at reduced pressure (750 mbar) followed by further 3 washes with 5 ml ice-cold Tris-buffer. The filters are then placed in counting vials and 4 ml scintillation solution added. The vials are counted in a Beckmann scintillation counter.
50 mM Tris-buffer pH 7.7: 7.38 g Trizma--7.7 plus distilled H2 O ad 1 liter. 100 ml 10% polyethylenimine (PEI): 100 ml dest. H2 O is added to approx. 20 g 50% PEI which is solubilized by stirring and heating. Diluted (1+99) before use. 6×2 nM ^3 H-DTG: The exact volume depends on the actual concentration of the batch, but is made as close as possible to 12 nM. The containers for the radioactive solution is rinsed in 96% ethanol before use.
^3 H-DTG was obtained from NEN Research Products, Du Pont Denmark. Specific activity 62.3 Ci/mmol.
The known sigma receptor ligands BMY 14802 and rimcazole were included in the test for comparison purposes.

As for `c1ccc2c(c1)COC21CCN(CCOCc2csc3ccccc23)CC1` [Compound 35a, 1'-[2-(Benzo[b]thiophen-3-ylmethyloxy)-1-ethyl]spiro[isobenzofuran-1(3H),4'-piperidine]], the IC50 stood at 0.73 nM.
The figure for `Clc1ccc(C2CCN(CCCCc3c[nH]c4ccccc34)CC2)cc1Cl` [Compound 2dd, 3-[4-(4-(3,4-Dichlorophenyl)-1-piperidyl)-1-butyl]indole] is 1.7 nM; for `c1ccc2c(c1)COC1(CCN(CCCCc3csc4ccccc34)CC1)C2` [Compound 10b, 1,4-Dihydro-1'-(4-(benzo[b]thiophen-3-yl)-1-butyl)spiro[3H-2-benzopyran-3,4'-piperidine]] it is 1.3 nM.
Then `Fc1ccc(-n2cc(CCCCN3C4CCC3CC3(C4)OCc4ccccc43)c3ccccc32)cc1` (centres unmarked) [Compound 9d], with 26 nM; and `Fc1ccc(-n2cc(CCCCN3CCC4(CC3)Cc3ccccc3CO4)c3ccccc32)cc1` [Compound 5b, 1,4-Dihydro-1'-[4-[1-(4-Fluorophenyl)-3-indolyl]-1-butyl]spiro[3H-2-benzopyran-3,4'-piperidine]], with 1.1 nM.
For the compound `Cc1ccc(C2CCN(CCCOc3cn(-c4ccc(F)cc4)c4ccc(Cl)cc34)CC2)cc1` [Compound 8d, 5-Chloro-1-(4-fluorophenyl)-3-[3-(4-(4-methylphenyl)-1-piperidinyl)-1-propyloxy]indol], the IC50 amounted to 11 nM.
With `OC(CCCN1CCC2(CC1)OCc1ccccc12)c1ccc(F)cc1` (centres unmarked) [Compound 26a, 1'-[4-(4-Fluorophenyl)-4-hydroxy-1-butyl]-spiro[isobenzofuran-1(3H),4'-piperidine]], the half-inhibitory concentration (IC50) turned out to be 0.89 nM.
The figure for `Fc1ccc2c(c1)C1(CCN(CCCCc3c[nH]c4ccccc34)CC1)OC2` [Compound 2jj, 6-Fluoro-1'-(4-(3-indolyl)-1-butyl)spiro[isobenzofuran-1(3H),4'-piperidine]] is 1.4 nM; for `Fc1ccc(-n2cc(CCCCN3CCC4(CC3)COCc3ccccc34)c3ccccc32)cc1` [Compound 9a, 1'-[4-[1-(4-Fluorophenyl)-3-indolyl]-1-butyl]spiro[1H-2-benzopyran-4(3H), 4'-piperidine]] it is 0.34 nM.
Then `Fc1ccc(C2CC3CCC(C2)N3CCCCc2noc3ccccc23)cc1` (centres unmarked) [Compound 24], with 1.9 nM; and `Clc1cccc(Cl)c1C1CCN(CCCCc2noc3ccccc23)CC1` [Compound 19d, 3-[4-(4-(2,6-Dichlorophenyl)-1-piperidyl)-1-butyl]-1,2-benzisoxazol], with 4.4 nM.
The figure for `Fc1ccc(C2CCN(CCCC3COc4ccc(F)cc43)CC2)cc1` (centres unmarked) [Compound 11a, 2,3-Dihydro-5-fluoro-3-[3-(4-(4-fluorophenyl)-1-piperidinyl)-1-propyl]benzofuran] is 0.31 nM.
Take “1'-[3-(2,3-Dihydro-5-fluoro-benzofuran-3-yl)-1-butyl]-spiro[isobenzofuran-1(3H),4'-piperidine] [Compound 11b]”: the IC50 is 0.63 nM.
Then `O=C1Nc2ccccc2C1CCCCN1CCC(c2ccc(F)cc2)CC1` (centres unmarked) [Compound 2ii, 3-[4-(4-(4-Fluorophenyl)-1-piperidyl)-1-butyl]indol-2-one], with 5.8 nM; and `Fc1ccc(-n2cc(CCCCN3CCC(c4ccccc4)CC3)c3ccccc32)cc1` [Compound 5f, 1-(4-Fluorophenyl)-3-[4-(4-phenyl-1-piperidyl)-1-butyl]indole], with 0.04 nM.
Then `c1ccc(CCCCN2CCC3(CC2)COCc2ccccc23)cc1` [Compound 2f], with 0.95 nM.
Then `Fc1ccc(-n2cc(CCCCN3CCC4(CC3)SCc3ccccc34)c3ccccc32)cc1` [Compound 9c, 1'-[4-[1-(4-Fluorophenyl)-3-indolyl]-1-butyl]spiro[benzo[c]thiophene-1(3H),4'-piperidine]], with 0.14 nM; and `c1ccc(CCCCN2CCC3(CC2)Cc2ccccc2CO3)cc1` [Compound 2g, 1,4-Dihydro-1'-(4-phenyl-1-butyl)spiro[3H-2-benzopyran-3,4'-piperidine]], with 0.36 nM.
On to `Cc1ccc2c(c1)COC21CCN(CCCCc2cn(-c3ccc(F)cc3)c3ccccc23)CC1` [Compound 9h, 1'-[4-[1-(4-Fluorophenyl)-3-indolyl]-1-butyl]-5-methylspiro[isobenzofuran-1(3H),4'-piperidine]], for which the IC50 is 2.3 nM.
The compound `FC(F)(F)c1ccc2[nH]nc(CCCCN3CCC4(CC3)OCc3ccccc34)c2c1` [Compound 18a, 1'-[4-(5-Trifluoromethylindazol-3-yl)-1-butyl]-spiro[isobenzofuran-1(3H),4'-piperidine]] returned an IC50 of 0.56 nM.
Then `c1ccc(SCCCN2CCC3(CC2)OCc2ccccc23)cc1` [Compound 2p, 1'-(3-Phenylthio-1-propyl)spiro[isobenzofuran-1(3H),4'-piperidine]], with 0.32 nM; and `Fc1ccc(-n2cc(CCCCN3CCC4(CC3)OCc3c(F)cccc34)c3ccccc32)cc1` [Compound 9s, 4-Fluoro-1'-[4-[1-(4-fluorophenyl)-3-indolyl]-1-butyl]spiro[isobenzofuran-1(3H),4'-piperidine]], with 56 nM; and `c1ccc2c(c1)COC21CCN(CCCCc2cn(-c3nccs3)c3ccccc23)CC1` [Compound 9q, 1'-[4-(1-(2-Thiazolyl)-3-indolyl)-1-butyl]spiro[isobenzofuran-1(3H) ,4'-piperidine]], with 0.12 nM.
The figure for `Fc1ccc(-n2cc(CCCCN3CCC4(CC3)OCc3ccccc34)c3cc(F)ccc32)cc1` [Compound 9b, 1'-[4-[5-Fluoro-1-(4-fluorophenyl)-3-indolyl]-1-butyl]spiro[isobenzofuran-1(3H), 4'-piperidine]] is 0.06 nM; for `O=S(=O)(CCCN1CCC2(CC1)OCc1ccccc12)c1ccccc1` [Compound 2s, 1'-(3-Phenylsulfonyl-1-propyl)spiro[isobenzofuran-1 (3H),4'-piperidine]] it is 3.1 nM; for `c1ccc2c(c1)COC1(CCN(CCCCc3noc4ccccc34)CC1)C2` [Compound 19c, 1-(4-(1,2-Benzisoxazol-3-yl)-1-butyl)spiro[3H-2-benzopyran-3,4'-piperidine]] it is 0.84 nM.
As for `Cc1ccc(-n2cc(CCCCN3CCC4(CC3)COCc3ccccc34)c3ccccc32)cc1` [Compound 9i, 1'-(4-(1-(4-Methylphenyl)-3-indolyl]-1-butyl]spiro[1H-2-benzopyran-4(3H), 4'-piperidine]], the IC50 worked out at 0.62 nM.
The figure for `Cc1ccc(S(=O)(=O)n2cc(CCCCN3CCC4(CC3)OCc3ccccc34)c3ccccc32)cc1` [Compound 6b, 1'-(4-(1-p-Toluenesulfonyl-3-indolyl)-1-butyl)spiro[isobenzofuran-1(3H),4'-piperidine]] is 0.17 nM; for `Fc1ccc2[nH]cc(CCCCN3CCC4(CC3)OCc3ccccc34)c2c1` [Compound 2aa] it is 0.3 nM.
Then `c1ccc2c(c1)COCC21CCN(CCCCCCc2c[nH]c3ccccc23)CC1` [Compound 2y, 1'-[6-(3-Indolyl)-1-hexyl]-spiro[1H-2-benzopyran-4(3H),4'-piperidine]], with 0.84 nM; and `Clc1cc2[nH]cc(CCCCN3CCC4(CC3)OCc3ccccc34)c2cc1Cl` [Compound 2z, 1'-[4-(5,6-Dichloro-3-indolyl)-1-butyl]-spiro[isobenzofuranr-1(3H) ,4'-piperidine]], with 1.5 nM; and `c1ccc2c(c1)COC1(CCN(CCCSc3csc4ccccc34)CC1)C2` [Compound 31b, 1'-[3-(Benzo[b]thiophen-3-ylthio)-1-propyl] spiro[3H-2-benzopyran-3,4'-piperidine]], with 2.6 nM.
Then `O=S(=O)(c1cccs1)n1cc(CCCCN2CCC3(CC2)OCc2ccc(F)cc23)c2ccccc21` [Compound 6c, 6-Fluoro-1'-(4-(1-(2-thienyl)sulfonyl-3-indolyl)-1-butyl)spiro[isobenzofuran-1(3H),4'-piperidine)], with under 0.1 nM; and `c1ccc(OCCCN2CCC3(CC2)Cc2ccccc2CO3)cc1` [Compound 2l, 1'-(3-Phenoxy-1-propyl)spiro[3H-2-benzopyran-3,4'-piperidine]], with 3.8 nM.
Consider `CCCCCN1CCC2(CC1)OCc1ccccc12` [Compound 1b, 1'-Pentylspiro[isobenzofuran-1(3H),4'-piperidine]], for which the IC50 was 3.7 nM.

The term IC50 denotes the concentration at which inhibition is half-maximal.
